The values that follow come from publication PMC8945811 (2022).

The test system of assay [1] is poly rA-poly rU (RNA, polymer) A/U. Kind of assay: CD titration. Conditions: Na-cacodylate, I = 0.05 M, 30 μM polynucleotide.
Assay [2] deals with poly dA-poly dT (DNA, polymer) A/T. The assay can be described thus: CD titration. Conditions: Na-cacodylate, I = 0.05 M; pH 7.0, 1 mM EDTA; 30 μM polynucleotide, r = 0.3; bisignate ICD, minor-groove dimers.
The test system of assay [3] is ATT triplex (poly dA-2poly dT) (DNA, polymer) A/T/T. The assay can be described thus: UV melting, 260 nm. Conditions: Na-cacodylate with NaCl, I = 0.1 M, pH 7.0, 1 mM EDTA, r = 0.1, error ±0.5, per base.
In the next assay the test system is poly rA (RNA, polymer) A. Kind of assay: competition dialysis. Conditions: Na-cacodylate, I = 0.05 M; pH 7, 1 mM EDTA, 25 °C, 24 h; 5 μM compound; bound amount only in figure.
Assay [4] concerns ATT triplex (poly dA-2poly dT) (DNA, polymer) A/T/T. The assay can be described thus: fluorescence titration, Scatchard. Conditions: Na-cacodylate, I = 0.05 M; pH 7.0, 1 mM EDTA, 25 °C; per phosphate; per base.
Assay [5] relates to ATT 26mer triplex (DNA, triplex) AAAAAAAAAAAAAAAAAAAAAAAAAA/TTTTTTTTTTTTTTTTTTTTTTTTTT/TTTTTTTTTTTTTTTTTTTTTTTTTT
The assay can be described thus: fluorescence titration, Scatchard. Conditions: Na-cacodylate, I = 0.05 M; pH 7.0, 1 mM EDTA, 25 °C; per phosphate; per base.

Assay [6] has as its system poly dA-poly rU (DNA:RNA, polymer) A/U. Kind of assay: fluorescence titration, Scatchard. To be noted: Na-cacodylate; pH 7.0, 1 mM EDTA, 25 °C; per phosphate; table footnote says I = 0.05 M; per base.
For assay [7] the test system is unchanged. Kind of assay: UV melting of four-polynucleotide mixture, 260 nm. Conditions: Na-cacodylate with NaCl, I = 0.1 M; pH 7.0, 1 mM EDTA; 2 μM compound, 20 μM (bp) each polynucleotide, r = 0.025; error ±0.5; per base.
The subject of assay [8] is poly rA-poly rU (RNA, polymer) A/U. The assay can be described thus: UV melting of four-polynucleotide mixture, 260 nm. To be noted: Na-cacodylate with NaCl, I = 0.1 M; pH 7.0, 1 mM EDTA; 2 μM compound, 20 μM (bp) each polynucleotide, r = 0.025; error ±0.5; per base.
The test system of assay [9] is poly dA-poly dT (DNA, polymer) A/T. Kind of assay: UV melting of four-polynucleotide mixture, 260 nm. To be noted: Na-cacodylate with NaCl, I = 0.1 M; pH 7.0, 1 mM EDTA; 2 μM compound, 20 μM (bp) each polynucleotide, r = 0.025; error ±0.5; per base.
In assay [10] the test system is ATT triplex (poly dA-2poly dT) (DNA, polymer) A/T/T. Kind of assay: ITC. Conditions: Na-cacodylate, I = 0.05 M; pH 7.0, 1 mM EDTA, 25 °C; site with n 0.1 of two-site fit (other site 6.5, n 0.7); per base.
Assay [11] relates to poly rA-poly dT (DNA:RNA, polymer) A/T. The assay can be described thus: ITC. Conditions: Na-cacodylate, I = 0.05 M; pH 7.0, 1 mM EDTA, 25 °C; one-site fit; per base.
In a further assay the test system is poly dT (DNA, polymer) T. The assay can be described thus: competition dialysis. Conditions: Na-cacodylate, I = 0.05 M; pH 7, 1 mM EDTA, 25 °C, 24 h; 5 μM compound; bound amount only in figure.
The test system of assay [12] is poly rA-poly dT (DNA:RNA, polymer) A/T. The assay can be described thus: UV melting of four-polynucleotide mixture, 260 nm. Conditions: Na-cacodylate with NaCl, I = 0.1 M; pH 7.0, 1 mM EDTA; 2 μM compound, 20 μM (bp) each polynucleotide, r = 0.025; error ±0.5; per base.
Setting [13] is: third-strand transition (duplex transition 0).

A word on the ΔTm: it is the shift of the melting midpoint relative to a reference. With `Clc1c(-c2nc3ccc(C4=NCCN4)cc3s2)sc2ccccc12`, the binding entry in assay [1] (pH 7.0, 1 mM EDTA, r = 0.3, negative ICD, intercalation) is “yes”; in assay [2], “yes”; with poly rA (RNA, polymer) A, “yes”. The ΔTm in [3] (setting [13]) was found to be 43.7 °C; in assay [7], 5.5 °C; in assay [8], 0 °C; in assay [9], 0 °C. Moreover, the “log Ks” value turned out to be 7.6 in [4], 7.4 in assay [5] and 8.0 in assay [6].

For `c1cc2nc(-c3cncc(-c4nc5ccc(C6=NCCN6)cc5s4)c3)sc2cc1C1=NCCN1`, the “log Ks” value in assay [10] is reported as 8.7; in assay [11], 7.8. The thermal shift (ΔTm) in assay [3] (third-strand transition (duplex transition 21.9)) was 31.7 °C; in assay [12], 1.7 °C; in [7] it was 5.6 °C; in assay [8], 2.2 °C; in assay [9], 19.1 °C. Further, the binding entry with poly dT (DNA, polymer) T is reported as “yes”; with poly rA (RNA, polymer) A it was “yes”.

As to `c1csc(-c2ccc(-c3nc4ccc(C5=NCCN5)cc4s3)s2)c1`, the binding result in [1] (pH 7.0, bisignate ICD, major-groove dimers) is given as “yes”. Further, the ΔTm in assay [3] (setting [13]) was determined as 27.3 °C; in assay [12], 1.7 °C; in [9], 2.1 °C.
